The text below walks through data of ChEMBL document CHEMBL3507680, “University of Dundee, Gates Library screen for HepG2 cell viability”.

This data set in a line: Human HepG2 cell viability assay in 384 well format. The format is toxicity, cell-based. Set-up: dose 125 nL, time 70.5 hour; cytotoxicity at 70.5 h: concentration not given beside the values. The note with it: HepG2 cells, read-out: Inhibition.
For the compound `CCS(=O)(=O)CCN1CCC(N(C)Cc2noc(C(C)C)n2)C1` (centres undefined), the cytotoxicity at 70.5 h was -5.52%.

As for `Cc1nnc(NC(=O)NCc2ccc(F)cc2)s1`, the cytotoxicity at 70.5 h is -1.95%.

In the case of `COc1ccc2c(c1)CN(Cc1ccco1)C(=O)CCN2`, the cytotoxicity at 70.5 h is -10%.

As for `Cc1nc(CNC(=O)C(C)(C)c2ccc(F)cc2)no1`, the cytotoxicity at 70.5 h was determined as 0.937%.

Take `CCc1c(C)nc2cc(C3CCN(Cc4cccc(F)c4)C3)nn2c1O` (centres undefined): the cytotoxicity at 70.5 h was -7.92%.

In the case of `Cc1ccc(CN2Cc3ccccc3O[C@]3(CC[C@H](CO)CC3)C2)s1`, the cytotoxicity at 70.5 h turned out to be 5.08%.

Take `CCN(CC)C(=O)c1ccn(COc2c(Cl)cccc2Cl)n1`: the cytotoxicity at 70.5 h is -10.4%.

For the compound `Cc1cc(C)n(CC2CCN(CC(O)CN3CCOCC3)CC2)n1` (centres undefined), the cytotoxicity at 70.5 h was -2.43%.

Regarding `CN(Cc1nnc2ccccn12)C(=O)CCNC(=O)C(C)(C)C`, the cytotoxicity at 70.5 h was 17.1%.

As to `CC[C@H](C)Nc1nccc(-c2cnc3sc(C)cn3c2=O)n1`, the cytotoxicity at 70.5 h was -5.35%.

`COC(=O)Cn1c(=O)nc2n1C(=O)N(c1ccc(C)cc1)C2`: the cytotoxicity at 70.5 h came to 13.2%.

Consider `Cc1c(C)n(Cc2ccccn2)c2nc3c(c(N)c12)CCCCCC3`, for which the cytotoxicity at 70.5 h came out at 22%.

As for `Cc1ccc(N2CCc3ncnc(C)c3CC2)nn1`, the cytotoxicity at 70.5 h was 18.8%.

With `O=C(C1CCOCC1)N1C[C@@H]2[C@@H](C1)OCC(=O)N2Cc1ccncc1`, the cytotoxicity at 70.5 h was -5.97%.

As to `O=C(c1ccccn1)N1CCC2(CNS(=O)(=O)c3cnccc3O2)C1` (centres undefined), the cytotoxicity at 70.5 h amounted to 17.6%.

For `O=C(CCC1CC1)N1CCC(n2cc(C3(O)CCCC3)nn2)CC1`, the cytotoxicity at 70.5 h was determined as 24.3%.

In the case of `O=C(CCN1CCc2ccccc21)N1C[C@@H](O)[C@H](N2CCCC2)C1`, the cytotoxicity at 70.5 h is -7.06%.

Turning to `Cc1noc(C)c1CN1CCN(CCN(C)C)c2ncccc2C1`, the cytotoxicity at 70.5 h is -2.96%.

Turning to `Cc1noc(C2CCCN(Cn3cc(Cl)cn3)C2)n1` (centres undefined), the cytotoxicity at 70.5 h was -1.46%.

For the compound `OC(CNC1CCOCC1)c1cccc(OCc2ccccc2)c1` (centres undefined), the cytotoxicity at 70.5 h was -10.5%.

`CN(C)S(=O)(=O)NCc1cccnc1Oc1ccc(F)cc1F`: the cytotoxicity at 70.5 h was -3.42%.

`COC(=O)c1cccc2nc([C@H]3CCN(Cc4ccccc4)C3)oc12`: the cytotoxicity at 70.5 h is -11.8%.

For `O=C(NCCCn1cccn1)C1(c2ccccc2)CCOCC1`, the cytotoxicity at 70.5 h was -10.8%.

In the case of `CCC(C(=O)NC1(CN2CCOCC2)CCCC1)n1cccn1` (centres undefined), the cytotoxicity at 70.5 h is -2.56%.

In the case of `CC(C)C(C)NC(=O)Nc1ccccc1CN1CCOCC1` (centres undefined), the cytotoxicity at 70.5 h is -8.46%.

For `CC(C)(C)N1CC(C(=O)NCc2cn3cccnc3n2)CC1=O` (centres undefined), the cytotoxicity at 70.5 h was -5.98%.

For `Cc1sc2nc(C(F)(F)F)nc(N3CCN(C)CC3)c2c1C`, the cytotoxicity at 70.5 h is -4.17%.

Consider `COCC1c2c(cnn2CC2CC2)CCN1Cc1ccsc1` (centres undefined), for which the cytotoxicity at 70.5 h was -20.6%.

`CCC(c1ccc(F)cc1)N1CCn2c(CO)nnc2C1` (centres undefined): the cytotoxicity at 70.5 h was -8.02%.

For the compound `Cc1cc(NC(=O)Cn2ncc(SCC(N)=O)c(Cl)c2=O)ccc1Br`, the cytotoxicity at 70.5 h is -5.33%.

On to `Cc1ccc(-n2cc(CN3CCOCC3)c(-c3cccc(C)c3)n2)cc1`, for which the cytotoxicity at 70.5 h is -2.44%.

Consider `CC(O)CN1CCN(C(=O)c2ccc(Cn3cccc3)cc2)CC1` (centres undefined), for which the cytotoxicity at 70.5 h is -2.78%.

Take `CN1CCN(c2nc(-c3cnn(C)c3)cs2)CC1`: the cytotoxicity at 70.5 h is -6.42%.

For the compound `Cc1c[nH]cc1C(=O)N1CCN(Cc2nc(C(C)C)no2)CC1`, the cytotoxicity at 70.5 h was -15.1%.

As for `Cc1nn(C)c(N(C)C)c1CNCc1ccccc1CN(C)C`, the cytotoxicity at 70.5 h was determined as 18.8%.

Regarding `c1ccc(CCN2CCCC(c3noc(C4CC4)n3)C2)cc1` (centres undefined), the cytotoxicity at 70.5 h was -5.63%.

As to `COCCN1C[C@@H]2CN(c3cnccn3)C[C@@H]2C1=O`, the cytotoxicity at 70.5 h was -10.9%.

Regarding `CCCn1nc2c(cc1=O)CN(CCS(C)(=O)=O)CC2`, the cytotoxicity at 70.5 h turned out to be 9.12%.

For the compound `COCC(=O)N1CCCC1c1cccc(Nc2ncc(C)s2)n1` (centres undefined), the cytotoxicity at 70.5 h was 0.0728%.

As for `CCn1ccnc1CN1CCCN(C(=O)COC2CCCC2)CC1`, the cytotoxicity at 70.5 h worked out at 22.5%.

Turning to `O=C1CCC2(CCNCC2)CN1CCCOc1cccnc1`, the cytotoxicity at 70.5 h is -1.48%.

Turning to `Fc1ccc(CN2CCO[C@H]3[C@H](OCc4ccncc4)CC[C@@H]32)cc1`, the cytotoxicity at 70.5 h amounted to 55.8%.

As to `CCc1nc(CN2CCCC(N(C)CCn3cccn3)C2)no1` (centres undefined), the cytotoxicity at 70.5 h came to 57.1%.

Consider `CN(C)Cc1nnn2c1CN(Cc1cccnc1)CCC2`, for which the cytotoxicity at 70.5 h was -83.6%.

In the case of `Cc1cc(CCC(=O)Nc2nncs2)nc(C2CCCN2)n1` (centres undefined), the cytotoxicity at 70.5 h came to 1.25%.

Consider `COc1ccccc1-c1ncc(CN2CCC3(CCN(C)C3)CC2)cn1`, for which the cytotoxicity at 70.5 h was -8.29%.

For the compound `COc1ccc(C(=O)N2CCCC2c2ccco2)cc1OC` (centres undefined), the cytotoxicity at 70.5 h is -12.1%.

As to `CN(CC(=O)Nc1cc(-n2nnnc2C2CC2)ccc1F)C1CCC1`, the cytotoxicity at 70.5 h was -8.29%.

As to `CCOC(=O)CCC(=O)N1CCC(Oc2ccc(C(F)(F)F)cn2)CC1`, the cytotoxicity at 70.5 h was -4.1%.

With `CN1CC2(CCCN(c3cnccn3)C2)OC1=O` (centres undefined), the cytotoxicity at 70.5 h is -9.73%.

In the case of `O=C(c1ccoc1)N1CCCn2nnc(COCC3CC3)c2C1`, the cytotoxicity at 70.5 h was -4.24%.

As for `CC(C)c1nccn1-c1cccc(C2CCN(C)CC2)n1`, the cytotoxicity at 70.5 h came out at 27.3%.

Take `CS(=O)(=O)N1CC[C@H]2OCC[C@@]2(C(=O)NCCc2ccccn2)C1`: the cytotoxicity at 70.5 h was -7.11%.

Consider `CCNC(=O)NC(=O)CNC(C)(C)c1ccc2c(c1)OCCO2`, for which the cytotoxicity at 70.5 h is -5.69%.

On to `O=C(Nc1ccccc1F)NC1(CO)CCOCC1`, for which the cytotoxicity at 70.5 h is -12.1%.

With `O=C1COC2(CCN(Cc3cccs3)CC2)CN1c1cccnc1`, the cytotoxicity at 70.5 h was 5.94%.

Consider `CC(C)CN1C(=O)CO[C@@H]2CN(C(=O)C3CCOC3)C[C@H]21` (some centres undefined), for which the cytotoxicity at 70.5 h was found to be 39.9%.

`CCNS(=O)(=O)c1ccc(C)c(C(=O)N(CCC#N)Cc2ccco2)c1`: the cytotoxicity at 70.5 h turned out to be 19.1%.

As to `Cc1oc(-c2ccco2)nc1CN1CCCC(Cn2cncn2)C1` (centres undefined), the cytotoxicity at 70.5 h is 39.6%.

For `CC1(C)COCCN1C(=O)Cc1cc(Cl)c2c(c1)OCCO2`, the cytotoxicity at 70.5 h was 0.881%.

`c1cnc(N2CCO[C@H]3[C@H](OCCN4CCOCC4)CC[C@@H]32)nc1`: the cytotoxicity at 70.5 h was -2.53%.

Regarding `CNC(=O)c1ccc(-c2ccc(CNS(=O)(=O)N(C)C)cc2)nc1C`, the cytotoxicity at 70.5 h is -0.408%.

As for `O=S(=O)(C/C=C/c1ccccc1)Cc1nc(C2CC2)no1`, the cytotoxicity at 70.5 h was -11.4%.

As for `CCCS(=O)(=O)N1CCC(Nc2c(F)cc(C#N)cc2F)CC1`, the cytotoxicity at 70.5 h was -2.66%.

For `CCOc1ccccc1N(C)C(=O)c1cscn1`, the cytotoxicity at 70.5 h amounted to 0.806%.

For the compound `CC(Cc1cn(CCc2nnn[nH]2)nn1)c1ccccc1` (centres undefined), the cytotoxicity at 70.5 h is -5.17%.

Regarding `CCC(C)(CC)NC(=O)COc1nn(C)c2nc(C)cc(C)c12`, the cytotoxicity at 70.5 h was 14.2%.

For the compound `O=C(NC1CCCCC1)N1C[C@H]2CN(c3cnccn3)C[C@@]2(C(=O)O)C1`, the cytotoxicity at 70.5 h is -14.9%.

For the compound `Cc1noc(-c2cccnc2N2CCN(c3cnn(C)c3)CC2)n1`, the cytotoxicity at 70.5 h is -12%.

With `Cc1ccc(N2CCC3(CC2)COCCN(c2nccs2)C3)nn1`, the cytotoxicity at 70.5 h was found to be 2.35%.

For the compound `CCC(NC(=O)c1cccc(N2CCCC2=O)c1)c1ccc(OC)cc1` (centres undefined), the cytotoxicity at 70.5 h was -4.2%.

As to `c1ccc(-c2nc(CCNCc3cccnc3)co2)cc1`, the cytotoxicity at 70.5 h was -4.67%.

Turning to `COc1ncccc1CN1CCC2(CC1)CN(c1ccccn1)CCO2`, the cytotoxicity at 70.5 h was -6.12%.

With `Cn1cc(C(=O)CC2CCCN2C(=O)c2cncc3ccccc23)cn1` (centres undefined), the cytotoxicity at 70.5 h worked out at 3.04%.

As to `NC(=O)CN(C(=O)Cc1ccc(C(F)(F)F)cc1)C1CCCC1`, the cytotoxicity at 70.5 h is -7.24%.

Consider `Cc1cnn(CC2CCCN2CCCS(C)(=O)=O)c1` (centres undefined), for which the cytotoxicity at 70.5 h is -2.25%.

For `O=C(NCCn1nc(C2CCNC2)c2cccnc21)C1CC1` (centres undefined), the cytotoxicity at 70.5 h was -1.28%.

Take `COc1ccccc1-c1cc(C(=O)Nc2nc[nH]n2)[nH]n1`: the cytotoxicity at 70.5 h is -12.9%.

Take `CCn1cncc1Cn1ncc2ccccc2c1=O`: the cytotoxicity at 70.5 h is -7.38%.

For `Cc1cc(-c2ccnn2C)nc(C2CCCN(S(C)(=O)=O)C2)n1` (centres undefined), the cytotoxicity at 70.5 h was -13.9%.

On to `COCCNC(=O)CCn1ncc2c(Cl)cccc21`, for which the cytotoxicity at 70.5 h worked out at 16.6%.

For the compound `CC(C)CN1CCS(=O)(=O)[C@@H]2CCN(S(=O)(=O)N(C)C)CC[C@@H]21`, the cytotoxicity at 70.5 h is -5.76%.

Turning to `COCCOc1ncccc1C(=O)N(C)c1ccc(OC)nc1`, the cytotoxicity at 70.5 h is -8.37%.

Take `CC(=O)Nc1c(C)noc1/C=C\c1ccc(S(=O)(=O)NC2CC2)cc1`: the cytotoxicity at 70.5 h was -1.71%.

For the compound `CSCC(=O)N(Cc1ccccn1)Cc1ccccc1C`, the cytotoxicity at 70.5 h is -4.08%.

For `CSCC(CCO)NC(=O)c1cccc(Cl)c1F` (centres undefined), the cytotoxicity at 70.5 h is -16.7%.

Consider `O=C1NCC(C(=O)Nc2ccc(=O)n(Cc3ccccc3Cl)c2)N1` (centres undefined), for which the cytotoxicity at 70.5 h was -21.3%.

For the compound `COCCn1ccnc1C1CCN(C(=O)CSc2nnc(C)s2)CC1`, the cytotoxicity at 70.5 h was -5.74%.

For `CC(C)N(CC(N)=O)CC(=O)N(C1=CCCCC1)C1CC1`, the cytotoxicity at 70.5 h is 3.33%.

As to `Cc1cc(CNC(=O)C2CCN(CC(N)=O)CC2)cc(C)n1`, the cytotoxicity at 70.5 h was -6.5%.

Regarding `CN(Cc1nc(Cc2cccc(F)c2)no1)C1CCOCC1`, the cytotoxicity at 70.5 h was -13.9%.

With `CCn1c(C)cc(C(=O)N2CCC(NC(=O)c3ccc(C)o3)CC2)c1C`, the cytotoxicity at 70.5 h is -89.5%.

Consider `Cc1ccc(CN(C)C(=O)c2n[nH]c(N)c2-c2ccccc2)o1`, for which the cytotoxicity at 70.5 h was 28.7%.

Turning to `O=S(=O)(NCC1OCCc2cn(CC3CCOCC3)nc21)C1CC1` (centres undefined), the cytotoxicity at 70.5 h was -3.73%.

Take `Cn1cnc2c1CCN(Cc1nc(-c3ccsc3)no1)C2`: the cytotoxicity at 70.5 h amounted to 32.4%.

With `CCOc1ccccc1CN1CCc2nc3ccsc3c(=O)n2CC1`, the cytotoxicity at 70.5 h is -7.1%.

For `O=c1cc(CNS(=O)(=O)C2CC2)nc2n1CCCN(CC1CC1)C2`, the cytotoxicity at 70.5 h was -5.1%.

Consider `O=C(NCCO)Nc1ccc(Cl)cc1-n1cccc1`, for which the cytotoxicity at 70.5 h was determined as 0.77%.

With `CC(C)Cc1noc(CN2CCN(C(=O)c3ccco3)CC2)n1`, the cytotoxicity at 70.5 h is -9.38%.
